Laboratory results: patent publication US6492381B1, “Tricyclic carbamate compounds useful for inhibition of G-protein function and for treatment of proliferative diseases” (Schering Corp., priority 1993, dated 2002)

Assays:
[1] = target: T1, farnesyl protein transferase (FPT) (Rattus norvegicus, UniProt Q02293+Q04631); test: In vitro enzyme assay: inhibition of farnesyl protein transferase; format: biochemical; conditions: Ras-CVLS farnesylation, partially purified rat brain FPT; read-out: FPT IC50
T1 construct: were partially purified from rat brain by ammonium sulfate fractionation followed by Q-Sepharose; from tissue; host or cells: rat brain
Method: (§1) 1. In vitro enzyme assays: Inhibition of farnesyl protein transferase and geranylgeranyl protein transferase.
Human farnesyl protein transferase was also expressed in E. coli, using cDNA clones encoding both the α and β subunits. […] Two forms of val^12-Ha-Ras protein were prepared as substrates for these enzymes, differing in their carboxy terminal sequence. One form terminated in cysteine-valine-leucine-serine (Ras-CVLS) the other in cystein-valine-leucine-leucine (Ras-CVLL). Ras-CVLS is a substrate for the farnesyl protein transferase while Ras-CVLL is a substrate for geranylgeranyl protein transferase I. The cDNAs encoding these proteins were constructed so that the proteins contain an amino-terminal extension of 6 histidine residues. Both proteins were expressed in Escherichia coli and purified using metal chelate affinity chromatography. The radiolabelled isoprenyl pyrophosphate substrates, [^3H]farnesyl pyrophosphate and [^3H]geranylgeranyl pyrophosphate, were purchased from DuPont/New England Nuclear.
The reaction was allowed to proceed for 30 minutes at room temperature and then stopped with 0.5 ml of 4% sodium dodecyl sulfate (SDS) followed by 0.5 ml of cold 30% trichloracetic acid (TCA). Samples were allowed to sit on ice for 45 minutes and precipitated Ras protein was then collected on GF/C filter paper mats using a Brandel cell harvester. […] Percent inhibition was calculated relative to the DMSO vehicle control.

[2] = target: T2, geranylgeranyl protein transferase (GGPT) I (Rattus norvegicus, UniProt P53610+Q04631); test: In vitro enzyme assay: inhibition of geranylgeranyl protein transferase I; format: biochemical
T2 construct: were partially purified from rat brain by ammonium sulfate fractionation followed by Q-Sepharose; from tissue; host or cells: rat brain
Text: as §1
Both farnesyl protein transferase (FPT) and geranylgeranyl protein transferase (GGPT) I were partially purified from rat brain by ammonium sulfate fractionation followed by Q-Sepharose (Pharmacia, Inc.) anion exchange chromatography essentially as described by Yokoyama et al (Yokoyama, K., et al., (1991). A protein geranylgeranyltransferase from bovine brain: Implications for protein prenylation specificity, Proc. Natl. Acad. Sci USA 88: 5302-5306, the disclosure of which is incorporated herein by reference thereto). Human farnesyl protein transferase was also expressed in E. coli, using cDNA clones encoding both the α and β subunits. The methods used were similar to those published (Omer, C. et al., (1993), Characterization of recombinant human farnesyl protein transferase: Cloning, expression, farnesyl diphosphate binding, and functional homology with yeast prenyl-protein transferase, Biochemistry 32:5167-5176). Human farnesyl protein transferase was partially-purified from the soluble protein fraction of E. coli as described above. the tricyclic farnesyl protein transferase inhibitors disclosed herein inhibited both human and rat enzyme with similar potencies. Two forms of val^12-Ha-Ras protein were prepared as substrates for these enzymes, differing in their carboxy terminal sequence. One form terminated in cysteine-valine-leucine-serine (Ras-CVLS) the other in cystein-valine-leucine-leucine (Ras-CVLL). Ras-CVLS is a substrate for the farnesyl protein transferase while Ras-CVLL is a substrate for geranylgeranyl protein transferase I. The cDNAs encoding these proteins were constructed so that the proteins contain an amino-terminal extension of 6 histidine residues. Both proteins were expressed in Escherichia coli and purified using metal chelate affinity chromatography. The radiolabelled isoprenyl pyrophosphate substrates, [^3H]farnesyl pyrophosphate and [^3H]geranylgeranyl pyrophosphate, were purchased from DuPont/New England Nuclear.
The geranylgeranyl protein transferase I assay was essentially identical to the farnesyl protein transferase assay described above, with two exceptions: [^3H]geranylgeranylpyrophosphate replaced farnesyl pyrophosphate as the isoprenoid donor and Ras-CVLL was the protein acceptor. This is similar to the assay reported by Casey et al (Casey, P. J., et al., (1991), Enzymatic modification of proteins with a geranylgeranyl isoprenoid, Proc. Natl. Acad. Sci, USA 88: 8631-8635, the disclosure of which is incorporated herein by reference thereto).

[3] = tested on: T24-BAG4 human bladder carcinoma cells expressing an activated H-ras gene; test: Cell Mat assay: inhibition of tumor cell growth; format: cell-based; conditions: Homo sapiens, tIC50
Method: Normal human HEPM fibroblasts were planted in 3.5 cm dishes at a density of 5×10^4 cells/dish in 2 ml growth medium, and incubated for 3-5 d to achieve confluence. Medium was aspirated from each dish and the indicator tumor cells, T24-BAG4 human bladder carcinoma cells expressing an activated H-ras gene, were planted on top of the fibroblast monolayer at a density of 2×10^3cells/dish in 2 ml growth medium, and allowed to attach overnight. Compound-induced colony inhibition was assayed by addition of serial dilutions of compound directly to the growth medium 24 h after tumor cell planting, and incubating cells for an additional 14 d to allow colony formation. Assays were terminated by rinsing monolayers twice with phosphate-buffered saline (PBS), fixing the monolayers with a 1% glutaraldehyde solution in PBS, then visualizing tumor cells by staining with X-Gal (Price, J., et al., Lineage analysis in the vertebrate nervous system by retrovirus-mediated gene transfer, Proc. Natl. Acad. Sci.84, 156-160(1987)). […] Both IC50 values were obtained by determining the density of tumor cells and mat cells by visual inspection and enumeration of cells per colony and the number of colonies under the microscope. The therapeutic index of the compound was quantitatively expressed as the ratio of mIC50/tIC50, with values greater than one indicative of tumor target specificity.

[4] = tested on: M27 [mouse Lewis lung carcinoma]; test: In vivo anti-tumor study, M27 s.c. tumor; conditions: po
Text: (§2) In Vivo Anti-Tumor Studies
(§3) Tumor cells (5×10^5 to 8×10^6 of M27 [mouse Lewis lung carcinoma], A431 [human epidermal carcinoma] or SW620 [human colon adenocarcinoma (lymph node metastasis)]) are innoculated subcutaneously into the flank of 5-6 week old athymic nu/nu female mice. For the C-f-1 [mouse fibroblast transformed with c-fos oncogene] tumor model, 2 mm^3 tumor fragments are transplanted subcutaneously into the flank of 5-6 week old athymic nu/nu female mice. Tumor bearing animals are selected and randomized when the tumors are established. Animals are treated with vehicle (beta cyclodextran for i.p. or corn oil for p.o.) only or compounds in vehicle twice a day (BID) for 5 (1-5) or 7 (1-7) days per week for 2 (×2) or 4 (×4) weeks. The percent inhibition of tumor growth relative to vehicle controls are determined by tumor measurements.

[5] = tested on: C-f-1 [mouse fibroblast transformed with c-fos oncogene]; test: In vivo anti-tumor study, C-f-1 s.c. tumor; conditions: C-f-1 s.c. in athymic nu/nu mice, BID
Text: as §2, §3

IC50 [1]: 3.7 µM
selective for FPT inhibition (versus GGPT) ([2]; FPT versus GGPT): at least 13 fold
activity against GGPT ([2]; at 49 μM): inactive
IC50 [3]: 12.5 µM
SMILES: CCOC(=O)N1CCC(C2(F)c3ccc(Cl)cc3CCc3cccnc32)CC1 (centres unmarked) [Compound 530.00]
average % tumor inhibition ([4]; M27, 100 MPK, 14/wk, ×4): 37%
% Inhibition (tumor growth relative to vehicle controls) ([4]; M27 s.c. in athymic nu/nu mice, BID, 1-7, × 4): 49%
% Inhibition (tumor growth relative to vehicle controls) ([5]; ip, 1-5, × 2): 17.8%
% Inhibition (tumor growth relative to vehicle controls) ([5]; po, 1-5, × 4): 69%
